Experimental data taken from patent US11225505B2, “Antimicrobial polymyxin derivative compounds” (MONASH UNIVERSITY, priority 2015, dated 2022).
≈ marks a conversion by molar mass, not a printed value. Like-named read-outs stand apart in the source and are kept apart here. Where a SMILES comes first, the peptide text is derived from it. Bridges are numbered along the chain shown (N, C = ends). [ ]: non-standard residue; d: D form. The star is where a group is joined. Propanoyl(3-indol-3-yl) = O=C(CCc1c[nH]c2ccccc12)*; Quinoxaline2carbonyl = O=C(c1cnc2ccccc2n1)*; X41 = O=C(c1cc2cc(F)c(F)cc2[nH]1)*; X66 = O=C(c1c[nH]c(-c2ccccc2)n1)*; X26 = CCc1ccc(C(=O)*)cn1; Dab = NCC[C@H](N)C(=O)O; X3 = O=C(c1cncc(Cl)c1)*; Abu = CC[C@H](N)C(=O)O; Dap = NC[C@H](N)C(=O)O; X53 = O=C(c1ccncc1Cl)*

Legend:
Assay type in all cases: cell-based
[1] = system: Acinetobacter baumannii FADDI-AB034
In short: (§1)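 The read-out is the MIC, obtained by CLSI broth microdilution (M100-S24) in cation-adjusted Mueller-Hinton broth. The compounds were lipopeptide TFA salts, and polymyxin B sulphate served as control.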

[2] = system: Klebsiella pneumoniae Kp BM1
In short: (§2)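 Standard CLSI (M100-S24) microdilution in cation-adjusted broth gives the MIC for each strain. Test compounds are TFA-salt lipopeptides; the comparator is polymyxin B sulphate.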

[3] = system: Enterobacter cloacae FADDI-EC001
In short: as §2

[4] = system: Klebsiella pneumoniae FADDI-KP032
In short: as §1

[5] = system: Enterobacter cloacae FADDI-EC003
In short: as §1

[6] = system: Pseudomonas aeruginosa FADDI-PA022
In short: as §1

[7] = system: Pseudomonas aeruginosa ATCC 27853
In short: as §1

[8] = system: Enterobacter cloacae FADDI-EC006
In short: as §1

[9] = system: Klebsiella pneumoniae FADDI-KP022
In short: as §1

[10] = system: Pseudomonas aeruginosa FADDI-PA01
In short: as §1

[11] = system: Acinetobacter baumannii ATCC 17978
In short: as §1

[12] = system: Pseudomonas aeruginosa FADDI-PA038
In short: as §1

[13] = system: Acinetobacter baumannii FADDI-AB030; assay: microbe, parasite or virus in culture
In short: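 Broth microdilution MIC in cation-adjusted Mueller-Hinton broth per CLSI M100-S24; lipopeptides tested as TFA salts. FADDI-AB030 is a multidrug-resistant clinical isolate. Polymyxin B sulphate served as control.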

Compound	Minimum inhibitory concentration ([1]; FADDI-AB034) [mg/L]	Minimum inhibitory concentration ([2]; Kp BM1) [mg/L]	Minimum inhibitory concentration ([3]; FADDI-EC001) [mg/L]	Minimum inhibitory concentration ([4]; FADDI-KP032) [mg/L]	Minimum inhibitory concentration ([5]; FADDI-EC003) [mg/L]	Minimum inhibitory concentration ([6]; FADDI-PA022) [mg/L]	Minimum inhibitory concentration ([7]; ATCC 27853) [mg/L]	Minimum inhibitory concentration ([8]; FADDI-EC006) [mg/L]	Minimum inhibitory concentration ([9]; FADDI-KP022) [mg/L]	Minimum inhibitory concentration ([10]; FADDI-) [mg/L]	Minimum inhibitory concentration ([11]; ATCC 17978) [mg/L]	Minimum inhibitory concentration ([12]; FADDI-PA038) [mg/L]	Minimum inhibitory concentration ([13]; FADDI-AB030) [mg/L]	further results
CC[C@@H]1NC(=O)[C@@H](CC(C)C)NC(=O)[C@H](CCN)NC(=O)[C@@H](NC(=O)[C@H](CN)NC(=O)[C@@H](NC(=O)[C@H](CCN)NC(=O)c2c[nH]c(-c3ccccc3)n2)[C@@H](C)O)CCNC(=O)[C@H]([C@@H](C)O)NC(=O)[C@H](CCN)NC(=O)[C@H](CCN)NC1=O [Compound 82] (X66-[Dab]T[Dap][Dab][Dab][dL][Abu][Dab][Dab]T; lactam 4-C)	–	–	–	–	–	–	–	–	–	–	–	–	–	Minimum inhibitory concentration ([1]; A. baumannii FADDI-AB034, CAMHB broth microdilution): 8 mg/L (≈ 6.91 µM); Minimum inhibitory concentration ([2]; K. pneumoniae Kp BM1, CAMHB broth microdilution): 1 mg/L (≈ 0.864 µM); Minimum inhibitory concentration ([3]; E. cloacae FADDI-EC001, CAMHB broth microdilution): 0.25 mg/L (≈ 0.216 µM); Minimum inhibitory concentration ([4]; K. pneumoniae FADDI-KP032, CAMHB broth microdilution): 0.5 mg/L (≈ 0.432 µM); Minimum inhibitory concentration ([5]; E. cloacae FADDI-EC003, CAMHB broth microdilution): 0.25 mg/L (≈ 0.216 µM); Minimum inhibitory concentration ([6]; P. aeruginosa FADDI-PA022, CAMHB broth microdilution): 0.5 mg/L (≈ 0.432 µM); Minimum inhibitory concentration ([7]; P. aeruginosa ATCC 27853, CAMHB broth microdilution): 0.5 mg/L (≈ 0.432 µM); Minimum inhibitory concentration ([8]; E. cloacae FADDI-EC006, CAMHB broth microdilution): 0.5 mg/L (≈ 0.432 µM); Minimum inhibitory concentration ([9]; K. pneumoniae FADDI-KP022, CAMHB broth microdilution): <0.125 mg/L; Minimum inhibitory concentration ([10]; P. aeruginosa FADDI-PA01, CAMHB broth microdilution): 0.5 mg/L (≈ 0.432 µM); Minimum inhibitory concentration ([11]; A. baumannii ATCC 17978, CAMHB broth microdilution): 2 mg/L (≈ 1.73 µM); Minimum inhibitory concentration ([12]; P. aeruginosa FADDI-PA038, CAMHB broth microdilution): 2 mg/L (≈ 1.73 µM); Minimum inhibitory concentration ([13]; A. baumannii FADDI-AB030, CAMHB broth microdilution): 4 mg/L (≈ 3.46 µM)
CCc1ccc(C(=O)N[C@@H](CCN)C(=O)N[C@H](C(=O)N[C@@H](CN)C(=O)N[C@H]2CCNC(=O)[C@H]([C@@H](C)O)NC(=O)[C@H](CCN)NC(=O)[C@H](CCN)NC(=O)[C@H](CC)NC(=O)[C@@H](CC(C)C)NC(=O)[C@H](CCN)NC2=O)[C@@H](C)O)cn1 [Compound 41] (X26-[Dab]T[Dap][Dab][Dab][dL][Abu][Dab][Dab]T; lactam 4-C)	2 (≈ 1.79 µM)	<0.125	<0.125	<0.125	<0.125	<0.125	0.25 (≈ 0.223 µM)	0.25 (≈ 0.223 µM)	<0.125	0.25 (≈ 0.223 µM)	2 (≈ 1.79 µM)	0.5 (≈ 0.446 µM)	2 (≈ 1.79 µM)	–
CC[C@@H]1NC(=O)[C@@H](CC(C)C)NC(=O)[C@H](CCN)NC(=O)[C@@H](NC(=O)[C@H](CN)NC(=O)[C@@H](NC(=O)[C@H](CCN)NC(=O)c2cnc3ccccc3n2)[C@@H](C)O)CCNC(=O)[C@H]([C@@H](C)O)NC(=O)[C@H](CCN)NC(=O)[C@H](CCN)NC1=O [Compound 46] (Quinoxaline2carbonyl-[Dab]T[Dap][Dab][Dab][dL][Abu][Dab][Dab]T; lactam 4-C)	4 (≈ 3.5 µM)	0.25 (≈ 0.219 µM)	0.25 (≈ 0.219 µM)	<0.125	0.25 (≈ 0.219 µM)	0.5 (≈ 0.437 µM)	0.5 (≈ 0.437 µM)	2 (≈ 1.75 µM)	<0.125	0.25 (≈ 0.219 µM)	4 (≈ 3.5 µM)	0.5 (≈ 0.437 µM)	2 (≈ 1.75 µM)	–
CC[C@@H]1NC(=O)[C@@H](CC(C)C)NC(=O)[C@H](CCN)NC(=O)[C@@H](NC(=O)[C@H](CN)NC(=O)[C@@H](NC(=O)[C@H](CCN)NC(=O)c2ccncc2Cl)[C@@H](C)O)CCNC(=O)[C@H]([C@@H](C)O)NC(=O)[C@H](CCN)NC(=O)[C@H](CCN)NC1=O [Compound 34] (X53-[Dab]T[Dap][Dab][Dab][dL][Abu][Dab][Dab]T; lactam 4-C)	8 (≈ 7.1 µM)	1 (≈ 0.888 µM)	0.25 (≈ 0.222 µM)	1 (≈ 0.888 µM)	0.5 (≈ 0.444 µM)	0.25 (≈ 0.222 µM)	0.25 (≈ 0.222 µM)	2 (≈ 1.78 µM)	<0.125	0.25 (≈ 0.222 µM)	8 (≈ 7.1 µM)	1 (≈ 0.888 µM)	8 (≈ 7.1 µM)	–
CC[C@@H]1NC(=O)[C@@H](CC(C)C)NC(=O)[C@H](CCN)NC(=O)[C@@H](NC(=O)[C@H](CN)NC(=O)[C@@H](NC(=O)[C@H](CCN)NC(=O)CCc2c[nH]c3ccccc23)[C@@H](C)O)CCNC(=O)[C@H]([C@@H](C)O)NC(=O)[C@H](CCN)NC(=O)[C@H](CCN)NC1=O [Compound 104] ({Propanoyl(3-indol-3-yl)}-[Dab]T[Dap][Dab][Dab][dL][Abu][Dab][Dab]T; lactam 4-C)	0.5 (≈ 0.432 µM)	<0.125	<0.125	<0.125	<0.125	0.25 (≈ 0.216 µM)	0.25 (≈ 0.216 µM)	0.25 (≈ 0.216 µM)	<0.125	<0.125	0.5 (≈ 0.432 µM)	0.5 (≈ 0.432 µM)	0.5 (≈ 0.432 µM)	–
CC[C@@H]1NC(=O)[C@@H](CC(C)C)NC(=O)[C@H](CCN)NC(=O)[C@@H](NC(=O)[C@H](CN)NC(=O)[C@@H](NC(=O)[C@H](CCN)NC(=O)c2cncc(Cl)c2)[C@@H](C)O)CCNC(=O)[C@H]([C@@H](C)O)NC(=O)[C@H](CCN)NC(=O)[C@H](CCN)NC1=O [Compound 6] (X3-[Dab]T[Dap][Dab][Dab][dL][Abu][Dab][Dab]T; lactam 4-C)	2 (≈ 1.78 µM)	0.5 (≈ 0.444 µM)	0.25 (≈ 0.222 µM)	0.25 (≈ 0.222 µM)	<0.125	1 (≈ 0.888 µM)	1 (≈ 0.888 µM)	0.25 (≈ 0.222 µM)	<0.125	0.5 (≈ 0.444 µM)	2 (≈ 1.78 µM)	0.5 (≈ 0.444 µM)	1 (≈ 0.888 µM)	–
CC[C@@H]1NC(=O)[C@@H](CC(C)C)NC(=O)[C@H](CCN)NC(=O)[C@@H](NC(=O)[C@H](CN)NC(=O)[C@@H](NC(=O)[C@H](CCN)NC(=O)c2cc3cc(F)c(F)cc3[nH]2)[C@@H](C)O)CCNC(=O)[C@H]([C@@H](C)O)NC(=O)[C@H](CCN)NC(=O)[C@H](CCN)NC1=O [Compound 60] (X41-[Dab]T[Dap][Dab][Dab][dL][Abu][Dab][Dab]T; lactam 4-C)	0.5 (≈ 0.429 µM)	0.5 (≈ 0.429 µM)	0.25 (≈ 0.214 µM)	0.5 (≈ 0.429 µM)	0.25 (≈ 0.214 µM)	0.5 (≈ 0.429 µM)	0.5 (≈ 0.429 µM)	1 (≈ 0.857 µM)	0.5 (≈ 0.429 µM)	0.5 (≈ 0.429 µM)	1 (≈ 0.857 µM)	1 (≈ 0.857 µM)	0.5 (≈ 0.429 µM)	–
